One test deals with T1, human 5HT2c receptor (Homo sapiens, UniProt P28335).
T1 construct: expressed in transfected cells; host or cells: Swiss 3T3 mouse cells
T1 sequence (P28335 33-458): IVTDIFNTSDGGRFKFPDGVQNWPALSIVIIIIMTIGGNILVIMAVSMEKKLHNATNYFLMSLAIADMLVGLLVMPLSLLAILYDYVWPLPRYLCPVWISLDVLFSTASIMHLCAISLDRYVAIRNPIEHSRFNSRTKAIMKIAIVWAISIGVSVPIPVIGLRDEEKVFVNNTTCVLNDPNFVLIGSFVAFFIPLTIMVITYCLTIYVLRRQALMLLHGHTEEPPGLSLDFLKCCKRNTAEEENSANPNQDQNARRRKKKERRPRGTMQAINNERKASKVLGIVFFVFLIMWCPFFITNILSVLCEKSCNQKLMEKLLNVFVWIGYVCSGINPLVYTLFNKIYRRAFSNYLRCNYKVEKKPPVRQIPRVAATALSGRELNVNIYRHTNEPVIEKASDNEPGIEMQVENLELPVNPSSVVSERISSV
Briefly: 5HT2c binding procedure (competition binding against 3H-5HT). The conditions noted are these: Swiss 3T3 mouse cells transfected with human 5HT2c receptor. The protocol:
Affinity of compounds at the serotonin 5HT2c binding site is determined by competition binding in Swiss 3T3 mouse cells (available from the American Type Culture Collection (ATCC), Manassas, Va.) transfected with the human 5HT2c receptor against 3H-5HT. The method is adapted from Roth et al., J. of Pharm. And Exp. Therap., 260(3), 1362–1365 (1992). Cells are grown in DMEM high glucose medium, harvested, homogenized, centrifuged, and resuspended in 50 mM Tris-HCL. They are incubated at 37° C. for 15 minutes, centrifuged, and then resuspended into assay buffer (50 mM Tris-HCl, 4 mM CaCl2, 0.1% ascorbic acid, and 100 μM pargyline at pH 7.7) at 100 volumes per gram. Assay tubes contain 25 μL of 10 nM ^3H-5HT (1 nM final conc.), and 25 μl of vehicle (assay buffer), blank (10 μM mianserin), or test compound (10X final volume). 200 μl of tissue homogenate is added to each tube, vortexed, and incubated for 30 minutes at 37° C. Samples are then rapidly filtered under vacuum with a Skatron™ cell harvester (available from Molecular Devices Corporation, Sunnyvale, Calif.) using GF/B filters presoaked in 0.5% polyethyleneimine (PEI), and washed with 2×5 mL cold 50 mM Tris-HCl. Filter mats are removed and counted in a Wallac Betaplate counter (available from PerkinElmer Life Sciences, Gaithersburg, Md.). Percent inhibition of specific binding by test compounds is used to calculate the Ki, or extrapolate concentration of test compound necessary to inhibit one-half of the total specific binding for each compound.

A further test concerns 5-HT2a receptor. Nature of the test: Functional assay (FLIPR calcium, Fluo 4-AM) in 5-HT2a expressed cells. In kind it is cell-based. Conditions: 5-HT2a expressed NIH 3T3 cells. The protocol: (§1) Swiss 3T3 cells expressing r-5HT2C, r-5HT2A, h-5HT2C or h-5HT2A receptors are seeded at a density of 12,500 cells/well in 384 well black/clear collagen-coated plates. Forty eight (48) hrs later the cells are loaded with the calcium sensitive dye, Fluo 4-AM (4 μM dissolved in DMSO containing pluronic acid) in serum free DMEM in the presence of probenicid (2.5 mM) for 75 minutes at 37° C. in a CO2 incubator. Unincorporated dye is removed by washing 3 times with a HEPES-buffered saline containing probenicid (2.5 mM) using a Skatron™ cell washer (final volume 30 μL).
(§2) Plates are added to a fluorometric imaging plate reader (FLIPR 384 available from Molecular Devices Corporation) individually and fluorescence measurements are taken every 2 seconds over an 85 seconds period. Test compound additions are made simultaneously to all 384 wells after 20 seconds of baseline recording. Concentration-response curves are generated using Graphpad Prism™ (available from GraphPad Software, Inc., San Diego, Calif.) and agonist efficacies are generated as % of the response to 10 μM 5-HT (considered as 100%). Estimation of antagonist potencies (functional Kis) are generated by measuring inhibition of the test compound response to 5-HT (10 nM for 5-HT2C and 50 nM for 5-HT2A) and applying the Cheng Prusoff equation.
The functional data for the compounds listed in the Examples above utilizing the 5-HT2a expressed NIH 3T3 cells is summarized below.

The test system of a further test is 5-HT2c receptor. Briefly: Functional assay (FLIPR calcium, Fluo 4-AM) in 5-HT2c expressed cells. The test is classed as cell-based. The conditions noted are these: at 10 μM; 5-HT2c expressed NIH 3T3 cells. The protocol:
as §1, §2
The functional data for the compounds listed in the Examples above utilizing the 5-HT2c expressed NIH 3T3 cells is summarized below.

For the next test, the target named is T2, rat 5HT2A receptor (Rattus norvegicus, UniProt P14842).
T2 construct: expressed in transfected cells; host or cells: NIH 3T3 mouse cells
Nature of the test: 5HT2A binding procedure (competition binding using 125I-DOI). Conditions: NIH 3T3 mouse cells transfected with rat 5HT2A receptor. The protocol: Affinity of compounds at the serotonin 5HT2A binding site is determined by competition binding in NIH 3T3 mouse cells transfected with the rat 5HT2A receptor using 1251-DOI. The method was adapted from Leonhardt et al., Molecular Pharmacology, 42, 328–335 (1992). Frozen cell paste is homgenized in 50 mM tris-HCl buffer pH 7.4 containing 2 mM MgCl2 using a Polytron and centrifuged at 45000×g for ten minutes. The resulting pellet is resuspended in fresh ice-cold 50 mM tris-HCl buffer pH 7.4 containing 2 mM MgCl2 using a Polytron™ and centrifuged again at 45000×g for ten minutes. The final pellet is resuspended in 50 mM tris-HCl buffer pH 7.4 containing 2 mM MgCl2 at a concentration of 5 mg/mL. Wells in a 96 well plate contain 25 μL of 0.7 nM 1251-DOI (70 pM final conc.), and 25 μL of vehicle (assay buffer), blank (10 μM cinanserin), or test compound (10× final volume). […] Filter mats are removed, dried and counted in a Wallac Betaplate counter. Concentration-response curves of the % inhibition of specific binding and log concentration by test compounds was used to determine the IC50 for each compound and the Ki value calculated based on the Cheng-Prusof equation (Ki=IC50/(1+(L/Kd)), where L is the concentration of the radioligand used in the binding assay and the Kd is based on previous saturation studies with the radioligand.

Results on three compounds are retold here after patent publication US6995159B2, “5-HT receptor ligands and uses thereof” (Pfizer Inc., priority 2001, dated 2006).

T2 sequence (P14842 whole entry): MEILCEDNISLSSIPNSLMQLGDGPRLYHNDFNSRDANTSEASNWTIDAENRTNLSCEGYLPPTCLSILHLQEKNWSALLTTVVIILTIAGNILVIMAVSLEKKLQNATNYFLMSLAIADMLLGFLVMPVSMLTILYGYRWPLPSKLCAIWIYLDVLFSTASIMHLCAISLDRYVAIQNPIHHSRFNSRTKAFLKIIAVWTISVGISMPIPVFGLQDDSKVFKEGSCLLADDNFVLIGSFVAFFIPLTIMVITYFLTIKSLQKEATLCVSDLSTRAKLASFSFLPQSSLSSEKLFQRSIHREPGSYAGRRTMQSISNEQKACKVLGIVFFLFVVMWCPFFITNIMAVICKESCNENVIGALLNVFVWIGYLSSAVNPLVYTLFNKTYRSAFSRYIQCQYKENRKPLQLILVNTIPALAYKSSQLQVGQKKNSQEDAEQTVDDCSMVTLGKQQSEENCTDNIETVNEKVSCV

As to `Cc1cccc(COc2nccc(N3CCNCC3)n2)n1.Cl` [Example 5-C, 2-(6-Methyl-pyridin-2-ylmethoxy)-4-piperazin-1-yl-pyrimidine, hydrochloride], the inhibitory constant (Ki) at human 5HT2c receptor is > 500 nM. Besides, the “functional mode at 5-HT2a (partial agonist / full antagonist)” value in the test with 5-HT2a receptor is “full antagonists”.

For `Cl.c1ccc(COc2nccc(N3CCNCC3)n2)nc1` [Example 5-B, 4-Piperazin-1-yl-2-(pyridin-2-ylmethoxy)-pyrimidine, hydrochloride], the inhibitory constant (Ki) at human 5HT2c receptor is > 500 nM. The “functional mode at 5-HT2a (partial agonist / full antagonist)” value with 5-HT2a receptor is given as “full antagonists”.

Regarding `C[C@@H]1CN(c2ccnc(OCc3cccc(Cl)c3)n2)C[C@H](C)N1` [Example 1-NN, 2-(3-Chloro-benzyloxy)-4-[(3R,5S)-dimethyl-piperazin-1-yl]-pyrimidine], in the test with 5-HT2c receptor, the 5-HT2c functional activity result is listed as “no 5-HT2c functional activity”. The Ki on human 5HT2c receptor was > 500 nM. For the same compound, on rat 5HT2A receptor, the 5HT2a binding activity entry is given as “no binding activity”. In addition, in the test on 5-HT2a receptor (at 10 μM), the 5-HT2a functional activity result is “no functional activity”.
